In brackets after ≈: the same amount, converted by molar mass.

Results on 25 compounds are retold here after ChEMBL document CHEMBL5356985, “Development of trisubstituted thiophene-3-arboxamide selenide derivatives as novel EGFR kinase inhibitors with cytotoxic activity” (RSC Med Chem, 2023).

Data set [1] concerns A549. In words: Antiproliferative activity against human A549 cells assessed as cell growth inhibition incubated for 48 hrs by MTT assay. It counts as functional, cell-based. The note with it: A549, 48 h. In general terms: Formazan colour is commonly taken as a measure of viable cells.
The subject of data set [2] is HCT-116. In words: Antiproliferative activity against human HCT-116 cells assessed as cell growth inhibition incubated for 48 hrs by MTT assay. It counts as functional, cell-based. The note with it: HCT-116, 48 h.
The test system of data set [3] is MCF7. Briefly: Antiproliferative activity against human MCF7 cells assessed as cell growth inhibition incubated for 48 hrs by MTT assay. The note with it: MCF7, 48 h. It counts as functional, cell-based.
Data set [4] has as its system SK-MEL-28. In words: Antiproliferative activity against human SK-MEL-28 cells assessed as cell growth inhibition incubated for 48 hrs by MTT assay. It counts as functional, cell-based. Conditions: SK-MEL-28, 48 h.
Data set [5] can be described thus: Cytotoxicity against human HaCaT cells assessed as cell growth inhibition incubated for 48 hrs by MTT assay. It counts as toxicity, cell-based.
Data set [6] deals with A549. In words: Antiproliferative activity against human A549 cells assessed as cell growth inhibition at 20 uM incubated for 48 hrs by MTT assay. It counts as functional.
In data set [7] the test system is HCT-116. Briefly: Antiproliferative activity against human HCT-116 cells assessed as cell growth inhibition at 20 uM incubated for 48 hrs by MTT assay. It counts as functional.
Data set [8] deals with MCF7. In words: Antiproliferative activity against human MCF7 cells assessed as cell growth inhibition at 20 uM incubated for 48 hrs by MTT assay. It counts as functional.
Data set [9] has as its system SK-MEL-28. In words: Antiproliferative activity against human SK-MEL-28 cells assessed as cell growth inhibition at 20 uM incubated for 48 hrs by MTT assay. It counts as functional.
For data set [10], the target named is T1, Epidermal growth factor receptor (Homo sapiens, UniProt P00533). In words: Inhibition of EGFR (unknown origin) using poly E4Y1 and ATP as substrate incubated for 60 mins by ADP-Glo kinase assay. Background: ADP-Glo first removes unused ATP, then detects ADP through luciferase.
T1 sequence (P00533 whole entry): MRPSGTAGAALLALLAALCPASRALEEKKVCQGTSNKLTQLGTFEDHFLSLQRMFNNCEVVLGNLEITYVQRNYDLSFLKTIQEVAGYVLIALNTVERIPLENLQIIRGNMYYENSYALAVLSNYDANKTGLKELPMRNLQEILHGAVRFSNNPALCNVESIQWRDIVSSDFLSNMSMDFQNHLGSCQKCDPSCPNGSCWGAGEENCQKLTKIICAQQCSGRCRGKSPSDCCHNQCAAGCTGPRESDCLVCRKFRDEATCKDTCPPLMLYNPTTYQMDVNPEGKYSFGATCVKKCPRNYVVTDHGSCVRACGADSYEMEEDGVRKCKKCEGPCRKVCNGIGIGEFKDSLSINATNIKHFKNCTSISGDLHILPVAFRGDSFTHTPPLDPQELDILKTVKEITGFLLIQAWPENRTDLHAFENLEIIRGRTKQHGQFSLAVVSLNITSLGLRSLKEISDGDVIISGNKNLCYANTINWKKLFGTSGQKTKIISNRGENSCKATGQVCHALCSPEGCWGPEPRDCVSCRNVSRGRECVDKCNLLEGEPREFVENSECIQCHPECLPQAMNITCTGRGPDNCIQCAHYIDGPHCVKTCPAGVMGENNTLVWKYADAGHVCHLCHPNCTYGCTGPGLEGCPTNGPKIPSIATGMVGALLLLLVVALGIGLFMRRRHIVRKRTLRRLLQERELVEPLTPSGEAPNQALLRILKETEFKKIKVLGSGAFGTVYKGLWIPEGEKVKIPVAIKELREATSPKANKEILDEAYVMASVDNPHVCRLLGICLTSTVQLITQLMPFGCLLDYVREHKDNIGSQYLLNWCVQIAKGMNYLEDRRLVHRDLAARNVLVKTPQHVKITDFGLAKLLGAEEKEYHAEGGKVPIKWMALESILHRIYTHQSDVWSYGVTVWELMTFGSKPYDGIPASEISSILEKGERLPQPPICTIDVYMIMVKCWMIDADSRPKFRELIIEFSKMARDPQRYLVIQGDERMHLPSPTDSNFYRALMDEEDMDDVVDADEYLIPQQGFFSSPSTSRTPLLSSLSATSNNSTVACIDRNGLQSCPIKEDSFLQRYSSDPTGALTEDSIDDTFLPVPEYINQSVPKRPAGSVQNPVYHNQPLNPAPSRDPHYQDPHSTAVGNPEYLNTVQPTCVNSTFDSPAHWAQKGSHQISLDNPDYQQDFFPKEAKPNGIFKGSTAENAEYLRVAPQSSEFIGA
Data set [11] concerns A2780S. Briefly: Antiproliferative activity against human A2780S cells assessed as reduction in cell viability incubated for 24 hrs by MTT assay. It counts as functional, cell-based.
In data set [12] the test system is SK-OV-3. Briefly: Antiproliferative activity against human SK-OV-3 cells assessed as reduction in cell viability incubated for 24 hrs by MTT assay. It counts as functional, cell-based. Conditions: SK-OV-3, 24 h.
A short description of data set [13]: Solubility in human plasma at pH 7.2 to 7.8 incubated for 4 hrs by HPLC analysis. It counts as ADME, cell-free.
For data set [14], the system named is MDA-MB-231. Briefly: Antiproliferative activity against human MDA-MB-231 cells assessed as reduction in cell viability incubated for 24 hrs by MTT assay. The note with it: MDA-MB-231, 24 h. It counts as functional, cell-based.
Data set [15] relates to MCF7. In words: Antiproliferative activity against human MCF7 cells assessed as reduction in cell viability incubated for 24 hrs by MTT assay. It counts as functional, cell-based. The note with it: MCF7, 24 h.
In data set [16] the target is T1, Epidermal growth factor receptor. Briefly: Inhibition of EGFR (unknown origin).
For data set [17], the target named is Epidermal growth factor receptor (Homo sapiens, UniProt P00533, L858R/T790M). In words: Inhibition of EGFR T790M/L858R mutant (unknown origin).
Sequence of Epidermal growth factor receptor (Homo sapiens, UniProt P00533, L858R/T790M) (P00533 25-1210 T790M/L858R limits assumed): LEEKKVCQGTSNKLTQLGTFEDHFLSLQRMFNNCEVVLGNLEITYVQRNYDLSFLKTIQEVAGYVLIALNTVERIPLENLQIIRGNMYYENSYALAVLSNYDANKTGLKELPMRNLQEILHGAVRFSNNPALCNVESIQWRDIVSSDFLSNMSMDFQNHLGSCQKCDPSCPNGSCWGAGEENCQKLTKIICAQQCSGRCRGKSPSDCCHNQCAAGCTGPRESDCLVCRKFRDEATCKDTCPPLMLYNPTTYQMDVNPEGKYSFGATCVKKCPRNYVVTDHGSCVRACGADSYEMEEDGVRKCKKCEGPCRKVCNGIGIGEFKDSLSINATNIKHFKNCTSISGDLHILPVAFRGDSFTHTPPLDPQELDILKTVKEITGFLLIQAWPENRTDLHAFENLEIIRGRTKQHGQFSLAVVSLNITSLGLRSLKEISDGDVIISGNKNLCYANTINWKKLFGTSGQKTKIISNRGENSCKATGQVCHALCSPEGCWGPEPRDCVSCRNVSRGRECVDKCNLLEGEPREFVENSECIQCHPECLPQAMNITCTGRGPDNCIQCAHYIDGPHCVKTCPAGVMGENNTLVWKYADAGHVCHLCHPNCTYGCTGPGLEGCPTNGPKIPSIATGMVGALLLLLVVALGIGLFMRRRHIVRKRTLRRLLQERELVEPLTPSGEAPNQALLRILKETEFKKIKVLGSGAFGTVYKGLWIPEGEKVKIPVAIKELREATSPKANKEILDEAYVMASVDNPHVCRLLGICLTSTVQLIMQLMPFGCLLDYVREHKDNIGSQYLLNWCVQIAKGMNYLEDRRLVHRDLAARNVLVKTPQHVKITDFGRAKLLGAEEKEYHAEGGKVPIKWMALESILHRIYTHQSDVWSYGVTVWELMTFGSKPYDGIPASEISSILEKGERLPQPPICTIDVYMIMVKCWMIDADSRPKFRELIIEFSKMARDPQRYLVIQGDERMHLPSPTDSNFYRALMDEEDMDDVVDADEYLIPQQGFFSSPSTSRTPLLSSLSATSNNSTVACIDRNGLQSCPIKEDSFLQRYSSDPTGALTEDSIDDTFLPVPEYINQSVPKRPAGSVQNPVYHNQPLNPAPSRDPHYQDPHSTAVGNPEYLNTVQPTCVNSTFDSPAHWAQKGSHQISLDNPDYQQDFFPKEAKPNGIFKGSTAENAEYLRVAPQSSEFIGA
The subject of data set [18] is A549. Briefly: Antiproliferative activity against human A549 cells assessed as reduction in cell viability. It counts as functional, cell-based.
A short description of data set [19]: Cytotoxicity against human L02 cells assessed as reduction in cell viability. It counts as toxicity, cell-based.
The nature of data set [20]: Selectivity index, ratio of IC50 for cytotoxicity against human L02 cells to IC50 for antiproliferative activity against human A549 cells. It counts as toxicity, cell-based. The note with it: L02 cells and A549 cells, read-out: Ratio IC50.

As a reminder, the IC50 is the concentration needed to halve the response being measured. Regarding `O=c1[nH]cc(F)c(=O)[nH]1` [FLUOROURACIL], the IC50 was 18.6 µM in [1], 16.7 µM in data set [2], 15.2 µM in data set [3] and 10.2 µM in data set [4].
Broadly, the inhibition is the drop in the measured response relative to a control, in per cent. As for `Cc1sc([Se]c2sc(C)c(-c3cccc(F)c3)c2C(=O)NC(C)C(=O)N2CCCC2)c(C(=O)NC(C)C(=O)N2CCCC2)c1-c1cccc(F)c1` (stereo not drawn), the IC50 in data set [1] worked out at 13.2 µM; in data set [2], 8.11 µM; in [3] it was 14.4 µM; in data set [4], 14.3 µM; in data set [10], 0.835 µM. Moreover, in [5], the IC50 at 48 h was 29.3 µM. Moreover, the inhibition at 20 µM in data set [6] stood at 77%; in [7], 72%; in data set [8], 86%; in data set [9], 62%.
For `Cc1sc(Br)c(C(=O)NC(C)C(=O)N2CCCC2)c1-c1cccc(F)c1` (stereo not drawn), the IC50 in data set [1] was 44.6 µM; in data set [2] it was 31 µM; in [3], 47.7 µM; in [4] it was 49.4 µM.
The solubility is the dissolved amount per volume that the medium holds. As for `COc1ccc(/C=C/C(=O)c2ccc(OC)c3c2OC(C)(C)C=C3)cc1O`, the IC50 in [11], in [12], in [14] and in data set [15] was 0.42 µM in each case. The solubility at 4 h in [13] amounted to 146 µg/mL (≈ 0.398 mM).
As to `c1ccc2c(c1)CCN2c1ncnc2cc3c(cc12)NCN3CCN1CCCC1`, in data set [16], 0.032 µM corresponded to half-maximal inhibition (IC50).
Regarding `Cc1sc([Se]c2sc(C)c(-c3cccc(F)c3)c2C(=O)NC(CC(C)C)C(=O)N2CCCC2)c(C(=O)NC(CC(C)C)C(=O)N2CCCC2)c1-c1cccc(F)c1` (stereo not drawn), the inhibition at 20 µM was 52% in data set [6], 57% in [7], 70% in data set [8] and 18% in data set [9].
In the same order, the values of `Cc1sc([Se]c2sc(C)c(-c3cccc(Cl)c3)c2C(=O)NC(C)C(=O)N2CCCC2)c(C(=O)NC(C)C(=O)N2CCCC2)c1-c1cccc(Cl)c1` (stereo not drawn) are 38%, 70%, 90% and 13%.
For the compound `Cc1sc(Br)c(C(=O)NC(C)C(=O)N2CCCC2)c1-c1ccccc1` (stereo not drawn), the IC50 in data set [1] is 40.1 µM; in data set [2], 37 µM; in data set [3], 39.2 µM; in data set [4] it was 55 µM.
Turning to `COc1ccc(/C=C/C(=O)c2ccc(OC)c3c2OC(C)(C)C=C3)cc1OC(=O)CNC(=O)OC(C)(C)C`, the IC50 in [11], in data set [12], in data set [14] and in data set [15] was 0.12 µM each time. For the same compound, in [13], the concentration in solution (solubility at 4 h) came to 2980 µg/mL (≈ 5.69 mM).
With `Cc1sc(Br)c(C(=O)NCC(=O)N2CCCC2)c1-c1cccc(F)c1`, the IC50 in [1] was 42.6 µM; in data set [2], 39 µM; in data set [3] it was 43.7 µM; in data set [4], 40.1 µM.
On to `Cc1sc([Se]c2sc(C)c(-c3cccc(Br)c3)c2C(=O)NC(C(=O)N2CCCC2)C(C)C)c(C(=O)NC(C(=O)N2CCCC2)C(C)C)c1-c1cccc(Br)c1` (stereo not drawn), for which the inhibition at 20 µM came out at 44% in data set [6], 51% in [7], 72% in [8] and 34% in data set [9].
With `Cc1sc(Br)c(C(=O)NC(CO)C(=O)N2CCCC2)c1-c1cccc(Br)c1` (stereo not drawn), the IC50 was found to be 28.8 µM in data set [1], 24.7 µM in data set [2], 32.7 µM in [3] and 54.6 µM in [4].
`Cc1sc([Se]c2sc(C)c(-c3ccccc3)c2C(=O)NCC(=O)N2CCCC2)c(C(=O)NCC(=O)N2CCCC2)c1-c1ccccc1`: the inhibition at 20 µM in data set [6] is 45%; in data set [7], 25%; in [8], 89%; in [9] it was < 10%.
Regarding `Cc1sc([Se]c2sc(C)c(-c3cccc(Br)c3)c2C(=O)NC(Cc2ccccc2)C(=O)N2CCCC2)c(C(=O)NC(Cc2ccccc2)C(=O)N2CCCC2)c1-c1cccc(Br)c1` (stereo not drawn), the inhibition at 20 µM in data set [6] stood at 14%; in [7] it was 9%; in data set [8] it was 26%; in data set [9] it was 18%.
As to `Cc1sc([Se]c2sc(C)c(-c3cccc(Cl)c3)c2C(=O)NC(C(=O)N2CCCC2)C(C)C)c(C(=O)NC(C(=O)N2CCCC2)C(C)C)c1-c1cccc(Cl)c1` (stereo not drawn), the inhibition at 20 µM in [6] was 36%; in data set [7] it was 47%; in data set [8], 64%; in [9] it was < 10%.
`Cc1sc([Se]c2sc(C)c(-c3ccccc3)c2C(=O)NC(C)C(=O)N2CCCC2)c(C(=O)NC(C)C(=O)N2CCCC2)c1-c1ccccc1` (stereo not drawn): the IC50 in [1] is 15 µM; in data set [2] it was 8.19 µM; in data set [3] it was 15.1 µM; in data set [4], 10.5 µM. Moreover, the IC50 at 48 h in data set [5] turned out to be 26.4 µM. In addition, the inhibition at 20 µM in [6] turned out to be 82%; in data set [7], 69%; in data set [8], 90%; in [9], 72%.
As to `Cc1sc(Br)c(C(=O)NC(CO)C(=O)N2CCCC2)c1-c1cccc(Cl)c1` (stereo not drawn), the IC50 was 33.9 µM in data set [1], 34.5 µM in data set [2], 36.9 µM in [3] and 57.1 µM in data set [4].
Turning to `Cc1sc([Se]c2sc(C)c(-c3cccc(Cl)c3)c2C(=O)NC(CO)C(=O)N2CCCC2)c(C(=O)NC(CO)C(=O)N2CCCC2)c1-c1cccc(Cl)c1` (stereo not drawn), the IC50 was 15.7 µM in data set [1]; 6.83 µM in data set [2]; 11.2 µM in data set [3]; 13.8 µM in data set [4]; 0.727 µM in data set [10]. Further, in [5], the IC50 at 48 h came to 31.8 µM. Moreover, the inhibition at 20 µM in [6] turned out to be 86%; in [7], 75%; in data set [8] it was 64%; in [9], 66%.
Take `Cc1sc([Se]c2sc(C)c(-c3cccc(F)c3)c2C(=O)NC(CO)C(=O)N2CCCC2)c(C(=O)NC(CO)C(=O)N2CCCC2)c1-c1cccc(F)c1` (stereo not drawn): the inhibition at 20 µM in [6] was 27%; in [7], 61%; in data set [8], 85%; in data set [9], 25%.
In the same order, the values of `Cc1sc([Se]c2sc(C)c(-c3cccc(Cl)c3)c2C(=O)NC(Cc2ccccc2)C(=O)N2CCCC2)c(C(=O)NC(Cc2ccccc2)C(=O)N2CCCC2)c1-c1cccc(Cl)c1` (stereo not drawn) are 23%, 15%, 13% and 22%.
On to `O=C(N/N=C/c1cnc(N2CCCC2)nc1)Nc1cc2c(Nc3ccc(F)c(Cl)c3)ncnc2cc1O[C@@H]1CCOC1`, for which the IC50 in data set [16] came out at 0.0063 µM; in [17] it was 0.0084 µM.
For the compound `COc1cc(C2c3cc4c(cc3C(OC3OC5COC(C)OC5C(O)C3O)C3COC(=O)C23)OCO4)cc(OC)c1O` (stereo not drawn), the values for the 50% inhibitory concentration (IC50) in [18] and in data set [19] were 9.4 µM and 3.5 µM, respectively. In addition, the selectivity ratio in [20] stood at 0.5.
Consider `Cc1sc([Se]c2sc(C)c(-c3cccc(F)c3)c2C(=O)NC(Cc2ccccc2)C(=O)N2CCCC2)c(C(=O)NC(Cc2ccccc2)C(=O)N2CCCC2)c1-c1cccc(F)c1` (stereo not drawn), for which the inhibition at 20 µM was 14% in data set [6], 10% in data set [7], 3% in data set [8] and < 10% in data set [9].
As to `Cc1sc([Se]c2sc(C)c(-c3cccc(F)c3)c2C(=O)NCC(=O)N2CCCC2)c(C(=O)NCC(=O)N2CCCC2)c1-c1cccc(F)c1`, the IC50 turned out to be 17.4 µM in data set [1], 9.22 µM in [2], 13.4 µM in [3] and 11.5 µM in data set [4]. The IC50 at 48 h in data set [5] turned out to be 24.7 µM. Besides, the inhibition at 20 µM in data set [6] was determined as 79%; in data set [7] it was 73%; in data set [8], 88%; in data set [9], 70%.
Turning to `Cc1sc([Se]c2sc(C)c(-c3cccc(F)c3)c2C(=O)NC(C(=O)N2CCCC2)C(C)C)c(C(=O)NC(C(=O)N2CCCC2)C(C)C)c1-c1cccc(F)c1` (stereo not drawn), the inhibition at 20 µM worked out at 35% in data set [6], 63% in data set [7], 58% in data set [8] and 36% in data set [9].
